These results are taken from PMC6155649 (Molecules : A Journal of Synthetic Chemistry and Natural …, 2017).

Read-outs that look alike come from different tables or passages of the source. Marks after values point to notes of the source that are not given here.

Data set [1] deals with P. falciparum Dd2. Nature of the data set: SYBRgreen growth inhibition assay. As to conditions: read-out: IC50 (nM) ± SD (n). In kind it is cell-based. How it is done:
(§1) The protocols are described in the experimental section. Two protocols to measure the growth inhibition were used: the tritiated hypoxanthine incorporation method and the SYBRgreen method. This was due to the fact that the radioactive assay was abandoned in the laboratory due to cost issues related to radioactive waste disposal. […] All data are mean values from one to four independent experiments, each consisting of eight drug concentrations in duplicate.
Parasite replication was assessed by fluorescent SYBRgreen staining of parasitic DNA [60] as previously described. IC50 values were calculated using SigmaPlot.

Another data set relates to P. berghei strain ANKA. On the set-up: method as in PMID 21682307. As to conditions: P. berghei strain ANKA-infected CD1 mice, day 4; cited from earlier work.
The subject of data set [2] is human lung MRC-5 fibroblasts. The arrangement: method as in PMID 21682307. Conditions: human MRC-5 fibroblasts, previously reported values; cited from earlier work.
Data set [3] has as its system P. falciparum Dd2. On the set-up: method as in PMID 21682307. As to conditions: P. falciparum Dd2, tritiated hypoxanthine incorporation method, previously reported values; cited from earlier work.
The next data set has as its system P. berghei (ANKA-strain). Nature of the data set: in vivo antimalarial activity in P. berghei ANKA-infected Swiss mice. On the set-up: species or system Plasmodium berghei. As to conditions: for % Parasitaemia (dpi) 4 / % Suppression (dpi) 4: day 4 post infection; for % Parasitaemia (dpi) 7 / % Suppression (dpi) 7: day 7 post infection; for % Parasitaemia (dpi) 11 / % Suppression (dpi) 11: day 11 post infection. How it is done:
Swiss mice (female—BW ~ 25 g; Janvier France, Le Genest Saint Isle, France) were allocated randomly to five groups of four animals each. Drinking water and food were available ad libitum throughout the experiment.
P. berghei (ANKA-strain) is maintained in the laboratory by weekly mechanical subpassage in Swiss mice. The infection inoculum was prepared by taking heparinized blood was collected from a clinically ill donor mouse (approximately 20% parasitaemia) and diluted in PBS to obtain an infection inoculum of 0.15 mL with about 4 × 10^8 infected erythrocytes. The infection-inoculum was given intraperitoneally. The untreated infected controls developed severe malaria with most animals showing severe clinical signs on day 4. […]. […]

The target of the next data set is Fe^III-heme. Conditions: read-out: KD of the 1:1 π-π complex with Fe^III-heme; pH 7.5; cited from earlier work.
In data set [4] the test system is human lung MRC-5 fibroblasts. Nature of the data set: cytotoxicity, Alamar Blue (resazurin) assay. Conditions: human MRC-5 fibroblasts, 3 days incubation. How it is done: All compounds were tested for cytotoxicity on human lung MRC-5 fibroblasts using the Alamar Blue assay (Table 1 and Table 2).
MRC-5SV2 cells are cultured in Earls MEM +5% FCSi. […] After 3 days incubation, cell viability is assessed fluorimetrically after addition of resazurin and fluorescence is measured (λex 550 nm, λem 590 nm). The results are expressed as % reduction in cell growth/viability compared to untreated control wells and CC50 is determined.
For orientation: Resazurin is reduced to fluorescent resorufin, in cell work by metabolically active cells.

Data set [5] relates to P. falciparum Dd2. Nature of the data set: tritiated hypoxanthine incorporation growth inhibition assay. It counts as cell-based. Conditions: for IC50: mean value. How it is done:
as §1
The IC50 values were determined using standard in vitro proliferation assays. […] The amount of radioactivity in precipitable material served as an index of parasite proliferation.

A short description of data set [6]: absorption spectrophotometric titrations versus pH (pKa). The text has this: The HClO4 and NaOH solutions were freshly prepared just before use and titrated with sodium tetraborate decahydrate (B4Na2O7·10H2O, puriss, p.a, Fluka) and potassium hydrogen phthalate (C8H5KO3, Fluka, puriss, p.a.), respectively, using methyl orange (RAL) and phenolphthalein (Prolabo, purum) as the indicators. The GLEE program was applied for the glass electrode calibration (standard electrode potential E0/mV and slope of the electrode/mV pH^−1) and to check carbonate levels of the NaOH solutions used (<5%). The cell was thermostated at 25.0 ± 0.2 °C by the flow of a Lauda E200 thermostat. A stream of argon, pre-saturated with water vapour, was passed over the surface of the solution.
The spectrophotometric data were analyzed with the Specfit program which adjusts the absorptivities and the stability constants of the species formed at equilibrium. Specfit uses factor analysis to reduce the absorbance matrix and to extract the eigenvalues prior to the multiwavelength fit of the reduced data set according to the Marquardt algorithm.

A short description of data set [7]: observation of precipitation in DMSO. It counts as physicochemical. As to conditions: table footnote *.
For data set [8] the following is noted: in 0.4 M KCl; cited from earlier work.
[9] abbreviates: 10 mg/kg ip for 5 days, Swiss mice.
Where [10] appears, read: 10 mg/kg ip for 5 days, Swiss mice, day 14 post infection.
[11] abbreviates: 10 mg/kg ip for 5 days, infected Swiss mice.
Where [12] appears, read: 50 mg/kg ip for 5 days, Swiss mice.
The mark [13] stands for this setting: Plasmodium falciparum, P. falciparum Dd2, SYBRgreen method, 72 h.
The mark [14] stands for this setting: P. falciparum Dd2, tritiated hypoxanthine incorporation method.
[15] abbreviates: Plasmodium falciparum, DD2, P. falciparum Dd2, tritiated hypoxanthine incorporation method.

With “2-Methyl-3-(4-bromo-benzyl)-4a,8a-dihydro-[1,4]naphthoquinone [Compound 25c]”, the half-inhibitory concentration (IC50) – broadly, the point on the concentration scale where inhibition reaches its midpoint – with P. falciparum Dd2 [1] (P. falciparum Dd2, SYBRgreen method, 72 h) is 82 ± 2 nM. Moreover, in the data set with P. berghei strain ANKA, the reduction of parasitemia is 35.8%. Besides, in data set [2], the “Tox/MRC-5” value is recorded as above 32.0 µM and the “Tox/MRC-5 (µM)” value is listed as >32.0 ^b µM. In the data set with P. falciparum Dd2 [3], the IC50 is 0.046 ± 0.004 µM.

Turning to `CCN(CC)CCCC(C)Nc1ccnc2cc(Cl)ccc12` (stereo not drawn) [Chloroquine, chloroquine], in the data set on P. berghei (ANKA-strain) (setting [9]), the “% Parasitaemia (dpi) 4” value is 5.2%, the “% Suppression (dpi) 4” value amounted to 86.3%, the “% Parasitaemia (dpi) 7” value is recorded as 9.8% and the “% Suppression (dpi) 7” value is 76.8%. For the same compound, in the data set with P. berghei (ANKA-strain) (setting [9]), the “% Parasitaemia (dpi) 11” value is reported as 32.1% and the “% Suppression (dpi) 11” value came out at 52.7%. Further, in the data set with P. berghei (ANKA-strain) (setting [10]), the “% Parasitaemia (dpi) 14” value is reported as 56.2% and the “% Suppression (dpi) 14” value is listed as 9.2%. In the data set on P. berghei (ANKA-strain) (setting [11]), the “Health Status” value was “From day 4 p.i. onwards: poor appearance, tremor, body weight loss, rough hair, one animal died before day 14 p.i” and the “survival until day 7” value amounted to 100%. Also, at Fe^III-heme, the Kd (in general, the equilibrium constant for the complex coming apart) is 2 to 15 µM. Besides, the IC50 in the data set on P. falciparum Dd2 [1] (Plasmodium falciparum, DD2, 72 h) is 99 ± 19 nM. For the same compound, the “Tox/MRC-5” value in [2] is 51.5 µM. For the same compound, the 50% inhibitory concentration (IC50) in the data set on P. falciparum Dd2 [3] was 0.11 ± 0.02 µM.

In the case of `CC1=C(Cc2ccc(NC(=O)OC(C)(C)C)cc2)C(=O)c2ccccc2C1=O` [Compound 6, tert-Butyl(4-((3-Methyl-1,4-dioxo-1,4-dihydronaphthalen-2-yl)methyl)phenyl) carbamate], in the data set on P. berghei (ANKA-strain) (setting [12]), the “% Parasitaemia (dpi) 4” value stood at 9.4%, the “% Suppression (dpi) 4” value was determined as 75.5%, the “% Parasitaemia (dpi) 7” value was determined as 7.7% and the “% Suppression (dpi) 7” value is on record as 81.8%. Besides, in the data set with P. berghei (ANKA-strain) (setting [12]), the “% Parasitaemia (dpi) 11” value stood at 41.9% and the “% Suppression (dpi) 11” value amounted to 38.1%. Moreover, the “% Parasitaemia (dpi) 14” value in the data set on P. berghei (ANKA-strain) (50 mg/kg ip for 5 days, Swiss mice, day 14 post infection) was found to be 69.3%. Also, the “Health Status” value in the data set on P. berghei (ANKA-strain) (50 mg/kg ip for 5 days, infected Swiss mice) is “From day 4 p.i. onwards: poor appearance (intermittent), one animal died before day 14 p.i”. Further, the half-maximal inhibitory concentration (IC50) in the data set with P. falciparum Dd2 [1] (setting [13]) turned out to be 109 ± 46 nM. The “Tox/MRC-5” value in data set [4] is above 64.0 µM. Also, the IC50 with P. falciparum Dd2 [5] (setting [14]) was 0.0425 µM. The IC50 in the data set with P. falciparum Dd2 [5] (setting [15]) came to 0.042 µM.

Turning to `CC1=C(Cc2cccc(N)c2)C(=O)c2ccccc2C1=O` [Compound 17, 2-(3-Aminobenzyl)-3-methylnaphthalene-1,4-dione], the “[LH+]pH5/[LH+]pH7.4” value in [6] (ratio of protonated species at pH 5 and 7.4, Water, I = 0.1 M NaClO4, T = 25 °C) is on record as 209.6. Also, in data set [6] (water with 0.1 M NaClO4), the pKa (in general, the pH at which an ionisable group is half protonated) was 4.3 ± 0.02. In addition, the half-maximal inhibitory concentration (IC50) in the data set with P. falciparum Dd2 [1] (setting [13]) is 1200 ± 1650 nM. Also, the “Tox/MRC-5” value in [4] is listed as above 64.0 µM. The “behaviour in DMSO” value in [7] is on record as “Precipitates in DMSO”.

Turning to `CC(=O)Nc1ccccc1CC1=C(C)C(=O)c2ccccc2C1=O` [Compound 22, N-(2-((3-Methyl-1,4-dioxo-1,4-dihydronaphthalen-2-yl)methyl)phenyl)acetamide], the melting point (usually the temperature of the solid-liquid transition) was 218 to 220 °C. Further, in the data set on P. falciparum Dd2 [1] (setting [13]), the IC50 turned out to be 282 ± 86 nM. Also, in [4], the “Tox/MRC-5” value is listed as 4.4 µM.

`CC1=C(Cc2ccc(-c3ccc(N(C)C)cc3)cc2)C(=O)c2ccccc2C1=O` [Compound 26, 2-(4′-Dimethylamino-biphenyl-4-ylmethyl)-3-methyl-[1,4]naphthoquinone] had a melting point of 170 to 171 °C. In addition, the “Tox/MRC-5” value in data set [4] is listed as above 64.0 µM. Further, the “fold higher IC50 value than plasmodione” value in the data set on P. falciparum Dd2 [5] (P. falciparum Dd2, hypoxanthine incorporation test) came out at 10 fold. In the data set on P. falciparum Dd2 [5] (setting [14]), the IC50 is 0.223 µM. Moreover, half-maximal inhibition in the data set with P. falciparum Dd2 [5] (setting [15]) (IC50) was put at 0.229 µM.

In turn, `CC1=C(Cc2ccc(-c3ccc(C(C)(C)C)cc3)cc2)C(=O)c2ccccc2C1=O` [Compound 27, 2-(4′-tert-Butyl-biphenyl-4-ylmethyl)-3-methyl-[1,4]naphthoquinone] displayed a melting point of 112 to 114 °C. Further, in data set [4], the “Tox/MRC-5” value was above 64.0 µM. In addition, it took 0.485 µM to reach half-maximal inhibition in the data set with P. falciparum Dd2 [5] (setting [15]) (IC50).

With `OCCN(CCO)c1ccccc1` [N-phenyldiethanolamine], in [8], the pKa is 4.13.
